According to patent US20260144796A1, “Compounds and Methods for Improving Health” (Acurx Pharmaceuticals, Inc., priority 2022, published 2026):
Converted amounts (≈) assume the structure as drawn. “Also recorded” adds a separate entry of the source. Like-named read-outs stand apart in the source and are kept apart here.

Legend:
Dorea longicatena = assay: MIC determination, stool Firmicute isolates; assay type: cell-based; conditions: N=1
[1] = test system: flagellar genes fliA, flgB, fliC in C. difficile strain CD 630; assay: Flagellar gene expression by qRT-PCR
Clostridium butyricum = assay: microbe, parasite or virus in culture; assay type: cell-based
[2] = test system: Lachnoclostridium pacaense; assay: MIC determination, stool Firmicute isolates; assay type: cell-based; conditions: Clostridium pacaense, N=1
Clostridioides difficile = assay: MIC determination, C. difficile strains; assay type: cell-based
Excerpt: Fecal samples homogenized in reduced PBS (0.1 g stool/ml PBS) and serially diluted and plated directly onto YCFA7 agar supplemented with 0.002 g/ml each of glucose, maltose and cellobiose in large (13.5 cm diameter) petri dishes. Isolated colonies were identified by PCR amplification of the full-length 16S rRNA gene (using 7F (5′-[…]-3′) forward primer and 1510R (5′-[…]-3′) reverse primer followed by Sanger sequencing. Full-length 16S rRNA gene sequence reads were aligned using CLC Genomics (Qiagen) using the Ribosomal Database Project (RDP) as reference to classify reads to Operational Taxonomic Units (OTUs). The full-length 16S rRNA gene sequence of each species-level OTU was compared to the Ribosomal Database Project (RDP) reference database to assign taxonomic designations to the genus level and a BLAST search performed to identify any candidate novel species.
Strains plated onto blood agar (Hardy Diagnostics) with a 24-hour incubation at 37° C. in an anaerobic environment (Coy vinyl anaerobic chamber). After incubation, 3-5 well-isolated colonies were suspended into 5 mL of BHI broth (Criterion Media). The cultures were incubated in an anaerobic chamber for 24 hours to achieve a 0.5 McFarland Standard. Brucella agar with 5% hemin (5 ug/mL) (Sigma), vitamin K (10 ug/mL), and defibrinated sheep blood (Northeast Lab Services). The supplemented brucella agar was then utilized for two-fold serial dilution to create plates with IBZ concentration of 0.5 to 16 μg/mL plates. Plates were allowed to dry in a sterile location. After drying, the plates were covered with foil to prevent any photo-damage to the hemin and placed in the anaerobic chamber for 1 hour to reduce the media. The broth culture was then spotted onto the plates and covered with foil. Plates were allowed to dry completely before inverting them for incubation for 48 hours. Plates were analyzed and MIC recorded.

[3] = test system: C. difficile CD 630 and R20291 cell morphology; assay: Morphology assessment by bright field microscopy; assay type: cell-based; conditions: sub-inhibitory to MIC, 24 hours, listed as IBZ
Protocol: Cultures were then incubated in an anaerobic chamber at 37° C. in for 24 hrs. Pre-cultures were diluted to approximately 10^6CFU/mL (1:100) in fresh BHI comprising 0.25×MIC (0.5 ug/mL) of the appropriate antibiotic. Following incubation for 24 hrs, EVOS imaging system (Thermofisher) was used to take bright field pictures at 40× magnification.

[4] = test system: C. difficile clinical isolates; conditions: Clostridioides difficile, 24 h, agar dilution
[5] = test system: C. difficile toxin A and B; assay: Toxin production by ELISA; assay type: cell-based; conditions: for reduction of toxin levels (toxin A and B), normalized to controls: sub-inhibitory concentrations, 24 h
Protocol: Toxin production was assessed by ELISA (tgcBiomics) according to the manufacturer instructions.

Which MIC50 (Dorea longicatena) does the source give for `O=c1[nH]c(NCc2ccc(Cl)c(Cl)c2)nc2ncn(CCN3CCOCC3)c12` [Ibezapolstat, 2-((3,4-dichlorobenzyl)amino)-7-(2-morpholinoethyl)-1,7-dihydro-6H-purin-6-one] here?
Its MIC50 is 3.12 mg/L (≈ 7.38 µM).

And the “reduction in motility and flagellar genes” value ([1]; 4-hour treatment with 0.25×MIC)?
Its value is “up to 50%”.

What about the “flgB expression decreased versus non-treated control” value ([1]; CD 630, 0.5×MIC, 4 hours) of the same compound?
The value was “about 30%”.

What about the “fliA expression attenuated versus non-treated control” value ([1]; CD 630, 0.5×MIC, 4 hours) of the same compound?
Its value is “about 60%”.

What about the “fliC expression decreased versus non-treated control” value ([1]; CD 630, 0.5×MIC, 4 hours) of the same compound?
Its value is “about 80%”.

What about the “decrease overall in flagellar gene expression” value ([1]; CD 630, sub-MIC (0.5×MIC), 4 hours, gluD control) of the same compound?
Its value is 2-to-5 fold.

And the MIC50 (Clostridium butyricum)?
The MIC50 was 12.5 mg/L (≈ 29.5 µM).

What about the MIC (Clostridium butyricum; read-out: MIC Max, Clostridium butyricum, N=5) of the same compound?
The MIC was 100 mg/L (≈ 236 µM).

What about the MIC (Clostridium butyricum; read-out: MIC Min, Clostridium butyricum, N=5) of the same compound?
Its MIC is 1.5 mg/L (≈ 3.54 µM).

And the MIC (Clostridium butyricum; strain C. butyricum 1007)?
Its MIC is greater than 100 mg/L.

And the MIC (Clostridium butyricum; strain C. butyricum 1008)?
Its MIC is 1.5 mg/L (≈ 3.54 µM).

What about the MIC50 [2] of the same compound?
Its MIC50 is 25 mg/L (≈ 59.1 µM).

What about the MIC50 (Clostridioides difficile; Clostridioides difficile, N=6) of the same compound?
The MIC50 was 0.5 mg/L (≈ 1.18 µM).

And the MIC (Clostridioides difficile; Clostridioides difficile, N=6, read-out: MIC Max)?
The MIC was 1 mg/L (≈ 2.36 µM).

What about the MIC (Clostridioides difficile; Clostridioides difficile, N=6, read-out: MIC Min) of the same compound?
The MIC was 0.25 mg/L (≈ 0.591 µM).

What about the MIC (Clostridioides difficile; Clostridioides difficile, strains of C. difficile, highly active) of the same compound?
Its MIC is no more than 2 mg/L.

What about the MIC (Clostridioides difficile; strains of C. difficile, highly active) of the same compound?
The MIC was less than 2 mg/L.

What about the cell morphology [3] of the same compound?
The cell morphology was “elongated cell phenotype; also recorded: dose-dependent effect on C. difficile cell length”.

And the MIC ([4]; C. difficile clinical isolate MT 4802)?
Its MIC is 4 mg/L (≈ 9.45 µM).

And the MIC ([4]; C. difficile clinical isolate MT 5071)?
Its MIC is 8 mg/L (≈ 18.9 µM).

And the MIC ([4]; C. difficile clinical isolate MT 5342)?
Its MIC is 4 mg/L (≈ 9.45 µM).

What about the MIC ([4]; C. difficile clinical isolate MT 5364) of the same compound?
Its MIC is 4 mg/L (≈ 9.45 µM).

What about the MIC ([4]; C. difficile clinical isolate MT 5382) of the same compound?
Its MIC is 8 mg/L (≈ 18.9 µM).

And the MIC ([4]; C. difficile clinical isolate MT 5426)?
The MIC was 8 mg/L (≈ 18.9 µM).

And the MIC ([4]; C. difficile clinical isolate MT 5493)?
Its MIC is 4 mg/L (≈ 9.45 µM).

What about the MIC ([4]; C. difficile clinical isolate MT 5515) of the same compound?
Its MIC is 8 mg/L (≈ 18.9 µM).

And the MIC ([4]; C. difficile clinical isolate MT 5529)?
The MIC was 4 mg/L (≈ 9.45 µM).

What about the MIC ([4]; C. difficile clinical isolate MT 5536) of the same compound?
Its MIC is 8 mg/L (≈ 18.9 µM).

What about the MIC ([4]; C. difficile clinical isolate SH 1132) of the same compound?
Its MIC is 8 mg/L (≈ 18.9 µM).

What about the “total toxin A and B production” value ([5]; strain CD 630, 24 hours of treatment) of the same compound?
The value was “decreases total toxin A and B production in strain CD 630 in a dose-dependent manner”.

What about the “reduction of toxin levels (toxin A and B), normalized to controls” value ([5]; strain CD 630) of the same compound?
The value was 55%.

And the “reduction of toxin levels (toxin A and B), normalized to controls” value ([5]; strain R20291)?
The value was 60%.
